Source: patent publication US20090062255A1, “TUMOR-TARGETING EVALUATION METHODOLOGY AND COMPOUNDS RELATED THERETO” (THALLION PHARMACEUTICALS INC., priority 2007, published 2009)
“And” between values parts separate entries of the source, which are not always exact repeats. Equal values may be shown once. “Also recorded” adds a separate entry of the source. Read-outs that look alike come from different tables or passages of the source.

Experiments:
[1] = system: prenylation of Ras, RAP1A and HDJ2 (FTase, GGTase I); experiment: Protein prenylation immunoblot (FTase and GGTase I activities) in MCF-7 cells; assay type: cell-based, human; details: MCF7 cells, 3, 10 and 30 μM, 24 h; listed as ECO-4601
Procedure: It was first verified if ECO-4601 interferes with Ras processing by monitoring FTase and GGTase I activities by immunoblot analysis. For these experiments, exponentially growing MCF-7 (human breast tumor) cells were seeded in 60 mm cell culture dishes at a density of 2.5×10^6 cells per dish. After an 18 h incubation period, ECO-4601 or lovastatin (Sigma-Aldrich, St. Louis, Mo.) were added at a final concentration of 3, 10 and 30 μM for 24 h. Cells were also treated with the vehicle alone (0.05% DMSO) for the same incubation periods. Treated and control cells were lysed in ice-cold RIPA buffer (50 mM Tris-HCl pH 7.4, 1% Triton X-100, 1% deoxycholate, 0.1% SDS, 150 mM NaCl, and 1 mM EDTA) containing protease inhibitors (Roche, Mannheim, Germany) and phosphatase inhibitors (EMD Biosciences, Calbiochem, San Diego, Calif.) for 20 minutes on ice. After lysis, cell debris was removed by centrifugation at 12000×g for 10 min. […] Bound antibodies were detected using horseradish peroxidase-conjugated secondary antibodies (Jackson ImmunoResearch Laboratories Inc., West Grove, Pa.) for 1 h at room temperature in 0.5% skim milk-TBS, visualized by treating the membranes with enhanced chemiluminescence reagents (Millipore, Mississauga, ON, Canada) and exposing them to BioMax Light Films (Kodak, Mississauga, ON, Canada). […]

[2] = Plasma and tissue drug levels after IV bolus and CIV infusion, rat C6 orthotopic brain tumors; assay type: in vivo
Procedure: 14 days post-tumor implantation, rats received a bolus IV administration of compound 1 (30 mg/kg; 1.5 mL at 0.5 mL per min) followed by continuous IV infusion (5 mg/kg/hour; 0.7 mL/hour) over 3 hours. The animals were then sacrificed by anesthetic overdose and blood was collected by heart puncture. Brain, tumor and liver were snap-frozen in liquid nitrogen and stored at −80° C. until analysis. Blood samples was collected into K2-EDTA tubes and kept on ice for a maximum of 30 min. Samples were then centrifuged at 4° C. and 1500 g (RCF). A volume of 225 μL of rat plasma was added to clean tubes containing 25 μL of aqueous 4% w/v L-ascorbic acid and samples were mixed and stored at −80° C. until analysis.
Binding potential (B.P.) data and Compound 1 plasma levels and tissue levels for each of the seven rats included in the study are presented in Table 23 below and summarized in FIG. 7.

[3] = system: phosphorylation of Raf-1 and ERK1/2 (Ras-MAPK signaling pathway); experiment: Western blot of EGF-induced Raf-1 and ERK1/2 phosphorylation in tumor cells; assay type: cell-based, human; details: 10 μM
Procedure: The effect of ECO-4601 on downstream events of Ras signaling was subsequently examined by monitoring the phosphorylation levels of Raf-1 and ERK1/2 by Western blot analysis. To study the effect of ECO-4601 on the Ras-MAPK signaling pathway, exponentially growing cells (human breast MCF-7 tumor cells, human breast MDA-MB-231 tumor cells, human glioma U 87-MG tumor cells and human prostate PC-3 tumor cells) were seeded onto 60 mm tissue culture dishes (0.5 to 0.8×10^6 cells per dish) for 24 h. The media was removed and cells were treated with 10 μM ECO-4601 in culture medium supplemented with 0.1% FBS for 30 min, 1 h, 4 h and 6 h, and subsequently exposed to EGF at 50 ng/mL for 10 min at 37° C. Control plates consisted of cells incubated in culture medium containing 0.1% FBS and 0.05% DMSO (vehicle) with or without EGF stimulation. At the end of each treatment, media was removed and cells rinsed with ice-cold PBS. Cells were then harvested by scraping and cell pellets were lysed in ice-cold RIPA buffer for 20 minutes on ice. Unsolubilized material was pelleted and discarded. The protein concentration of each lysate was quantified using the Bio-Rad protein assay (Bio-Rad Laboratories). Equivalent amounts of protein (20-30 μg protein) were separated on 10% or 12% SDS-PAGE under reducing conditions, transferred onto nitrocellulose membranes (0.2 μm; Bio-Rad Laboratories) and blotted as above with phospho-c-Raf (Ser338) and c-Raf (Cell Signaling Technology Inc., Boston, Mass.), phospho-p44/42 (Thr2O2/Tyr204, p-ERK1/2) and p44/42 (ERK1/2) MAP Kinases (Cell Signaling Technology Inc.) and GAPDH (SantaCruz Biotechnology Inc.).

[4] = system: genes involved in steroid biosynthesis, cholesterol transport/metabolism, signal transduction and apoptosis; experiment: Gene expression in animals treated with Compound 1; details: in vivo
[5] = individual rats, IV bolus 30 mg/kg then CIV 5 mg/kg/hour over 3 hours, listed as ECO-4601

## CC(C)=CCC/C(C)=C/CC/C(C)=C/CN1C(=O)c2cccc(O)c2Nc2c(O)cc(O)cc21 [Compound 1, 10-farnesyl-4,6,8-trihydroxy-5,10-dihydrodibenzo[b,e][1,4]diazepin-11-one]
[1]
  effect on protein prenylation (mobility shift of Ras, RAP1A and HDJ2): does not inhibit protein prenylation; also recorded: no effect
[2]; FIG. 7
  tumor compared to liver: 7 fold
[2]; [5]
  Brain Drug Level: 527 ng/g and 692 ng/g and 823 ng/g and 1265 ng/g and 941 ng/g and 503 ng/g and 596 ng/g
  Liver Drug Level: 11.2 µg/g and 6.91 µg/g and 53.1 µg/g and 61.0 µg/g and 14.2 µg/g and 3.31 µg/g and 2.29 µg/g
  Plasma Drug Level: 16000 ng/mL and 12000 ng/mL and 22000 ng/mL and 32000 ng/mL and 11500 ng/mL and 4200 ng/mL and 4100 ng/mL
  Tumor Drug Level: 234 µg/g and 8.46 µg/g and 182 µg/g and 273 µg/g and 242 µg/g and 8.98 µg/g and 119 µg/g
[2]; rat, liver, intravenous, FIG. 7, read-out: liver level (mean)
  concentration at 3 h: 24800 ng/g
[2]; rat, plasma, intravenous, FIG. 7, read-out: plasma level (mean)
  concentration at 3 h: 16200 ng/g
[2]; rat, tumor / plasma, intravenous, FIG. 7, read-out: tumor compared to plasma
  Kp at 3 h: 11
[2]; rat, tumor, intravenous, FIG. 7, read-out: accumulation in the tumor (mean level)
  concentration at 3 h: 176000 ng/mL
[3]
  amount of total Raf-1: decrease
  time to complete inhibition of protein phosphorylation: ≤ 6 h
[3]; MCF-7, MDA-MB-231, U 87-MG and PC-3 cells
  inhibition of EGF-induced phosphorylation of Raf-1 and ERK1/2: strong inhibition
[4]
  expression of several genes in treated animals: increased expression
